Where only a bound is given, the exact number is not on record here.

Data set [1] deals with T1, Bile acid receptor (Homo sapiens, UniProt Q96RI1).
T1 sequence (Q96RI1 whole entry): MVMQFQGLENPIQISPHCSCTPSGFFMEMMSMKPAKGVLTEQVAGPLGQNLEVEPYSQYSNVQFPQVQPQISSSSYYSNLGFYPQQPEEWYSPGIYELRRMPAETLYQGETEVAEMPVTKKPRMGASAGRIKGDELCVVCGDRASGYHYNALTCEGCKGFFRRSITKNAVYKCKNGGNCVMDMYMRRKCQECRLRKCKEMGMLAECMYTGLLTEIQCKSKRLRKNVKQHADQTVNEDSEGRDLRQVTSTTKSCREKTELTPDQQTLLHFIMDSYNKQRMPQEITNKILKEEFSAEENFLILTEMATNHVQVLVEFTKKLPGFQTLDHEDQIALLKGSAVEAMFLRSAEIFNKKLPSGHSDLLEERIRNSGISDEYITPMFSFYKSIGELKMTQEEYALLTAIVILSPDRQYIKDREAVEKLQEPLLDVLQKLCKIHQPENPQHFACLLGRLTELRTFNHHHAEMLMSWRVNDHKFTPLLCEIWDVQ
Description: Agonist activity at FXR LBD (unknown origin) using fluorescein-SRC2-2 as substrate incubated for 3 hrs by TR-FRET assay.

Data set [2] in a line: Sub-acute toxicity in ICR mouse assessed as change in serum ALP level at 500 mg/kg, po qd treated for 10 days. Type of data set: organism-based. The conditions noted are these: in vivo, 240 h, time 10 day.
A short description of data set [3]: Sub-acute toxicity in ICR mouse assessed as animal death at 500 mg/kg, po qd treated for 10 days. Format: organism-based. The conditions noted are these: in vivo, 240 h, time 10 day.
Data set [4] in a line: Sub-acute toxicity in ICR mouse assessed as change in serum DBIL level at 500 mg/kg, po qd treated for 10 days. Format: organism-based. As to conditions: in vivo, 240 h, time 10 day.
Data set [5] in a line: Sub-acute toxicity in ICR mouse assessed as change in serum TC level at 500 mg/kg, po qd treated for 10 days. As to conditions: in vivo, 240 h, time 10 day. Format: organism-based.
Data set [6] can be described thus: Sub-acute toxicity in ICR mouse assessed as anomaly in heart at 500 mg/kg, po qd treated for 10 days. Format: organism-based. As to conditions: in vivo, 240 h, time 10 day.
The nature of data set [7]: Sub-acute toxicity in ICR mouse assessed as anomaly in kidney at 500 mg/kg, po qd treated for 10 days. Format: organism-based. The conditions noted are these: in vivo, 240 h, time 10 day.
The nature of data set [8]: Sub-acute toxicity in ICR mouse assessed as change in serum ALT level at 500 mg/kg, po qd treated for 10 days. The conditions noted are these: in vivo, 240 h, time 10 day. Type of data set: organism-based.
A short description of data set [9]: Sub-acute toxicity in ICR mouse assessed as anomaly in spleen at 500 mg/kg, po qd treated for 10 days. Format: organism-based. The conditions noted are these: in vivo, 240 h, time 10 day.
The nature of data set [10]: Sub-acute toxicity in ICR mouse assessed as anomaly in liver at 500 mg/kg, po qd treated for 10 days. Format: organism-based. The conditions noted are these: in vivo, 240 h, time 10 day.
The nature of data set [11]: Sub-acute toxicity in ICR mouse assessed as change in serum creatinine level at 500 mg/kg, po qd treated for 10 days. As to conditions: in vivo, 240 h, time 10 day. Type of data set: organism-based.
The nature of data set [12]: Sub-acute toxicity in ICR mouse assessed as change in serum TBIL level at 500 mg/kg, po qd treated for 10 days. Format: organism-based. The conditions noted are these: in vivo, 240 h, time 10 day.
Data set [13] in a line: Sub-acute toxicity in ICR mouse assessed as change in serum TG level at 500 mg/kg, po qd treated for 10 days. Format: organism-based. The conditions noted are these: in vivo, 240 h, time 10 day.
Data set [14] can be described thus: Sub-acute toxicity in ICR mouse assessed as anomaly in lung at 500 mg/kg, po qd treated for 10 days. Format: organism-based. The conditions noted are these: in vivo, 240 h, time 10 day.
The nature of data set [15]: Sub-acute toxicity in ICR mouse assessed as abnormal behaviour at 500 mg/kg, po qd treated for 10 days. Type of data set: organism-based. The conditions noted are these: in vivo, 240 h, time 10 day.
The nature of data set [16]: Sub-acute toxicity in ICR mouse assessed as change in serum urea level at 500 mg/kg, po qd treated for 10 days. Type of data set: organism-based. The conditions noted are these: in vivo, 240 h, time 10 day.
Data set [17] is described as follows: Sub-acute toxicity in ICR mouse assessed as change in serum AST level at 500 mg/kg, po qd treated for 10 days. As to conditions: in vivo, 240 h, time 10 day. Type of data set: organism-based.

The EC50 is the concentration needed to bring the measured effect to its halfway point. A lower EC50 goes with greater potency. Compound `CC#CC(CC(=O)O)c1ccc(OCc2ccc(N(CC(C)C)S(=O)(=O)c3c(Cl)cccc3Cl)cc2)cc1` (stereo not given) registered an EC50 in data set [1] of more than 10 µM.

In data set [1], `CC(C)CN(c1ccc(-c2cccc(C3(C(=O)O)CC3)c2)cc1)S(=O)(=O)c1c(Cl)cccc1Cl` registered an EC50 of more than 10 µM.

Turning to `CC(C)CN(c1ccc(-c2ccc(C(=O)O)cc2)cc1)S(=O)(=O)c1c(Cl)cccc1Cl`, the EC50 in data set [1] was determined as 3.5 µM.

In data set [1], `CC(C)CN(c1ccc(-c2ccc(OC(C)C(=O)O)c(F)c2)cc1)S(=O)(=O)c1c(Cl)cccc1Cl` (stereo not given) registered an EC50 of 8.7 µM.

`CC(C)CN(c1ccc(-c2ccc(C(=O)NC3CC3)cc2)cc1)S(=O)(=O)c1c(Cl)cccc1Cl`: in [1], the EC50 was more than 10 µM.

As to `CC(C)CN(c1ccc(-c2ccc(CCC(=O)O)cc2)cc1)S(=O)(=O)c1c(Cl)cccc1Cl`, in data set [1], the EC50 stood at 6.5 µM.

Take `CC(C)CN(c1ccc(-c2ccc(OC(C)(C)C(=O)O)c(F)c2)cc1)S(=O)(=O)c1c(Cl)cccc1Cl`: the EC50 in [1] was more than 10 µM.

In turn, `CC(C)CN(c1ccc(-c2ccc(OCC(=O)O)c(F)c2)cc1)S(=O)(=O)C1CCCCC1` registered an EC50 in data set [1] of more than 10 µM.

For `CC(C)CN(c1ccc(-c2ccc(OCC(=O)O)cc2)cc1)S(=O)(=O)c1c(Cl)cccc1Cl`, a half-maximal response in data set [1] (EC50) required 0.89 µM.

`CC(C)CN(c1ccc(-c2cccc(C(=O)O)c2)cc1)S(=O)(=O)c1c(Cl)cccc1Cl`: the EC50 in data set [1] is more than 10 µM.

On to `CC(C)CN(c1ccc(-c2ccc(OCC(=O)O)c(F)c2)cc1)S(=O)(=O)c1c(Cl)cccc1Cl`, for which the Activity result in [2], in data set [3], in data set [4], in data set [5], in data set [6] and in data set [7] was “Non-Toxic” each time. Also, the Activity entry in data set [8], in data set [9], in data set [10], in [11], in data set [12] and in data set [13] was “Non-Toxic” throughout. The Activity result in [14], in data set [15], in data set [16] and in [17] was “Non-Toxic” throughout.

In [1], `Cc1ccc(S(=O)(=O)N(CC(C)C)c2ccc(-c3ccc(OCC(=O)O)c(F)c3)cc2)cc1` had an EC50 of more than 10 µM.

The compound `Cc1ccc(S(=O)(=O)N(CC(C)C)c2ccc(-c3ccc(CCC(=O)O)cc3)cc2)cc1` displayed an EC50 in data set [1] of more than 10 µM.

`CC(C)CN(c1ccc(COc2cccc(CC(=O)O)c2)cc1)S(=O)(=O)c1c(Cl)cccc1Cl` returned an EC50 in data set [1] of more than 10 µM.

Turning to `CC(C)CN(c1ccc(-c2cccc(CC(=O)O)c2)cc1)S(=O)(=O)c1c(Cl)cccc1Cl`, in [1], the EC50 is more than 10 µM.

The compound `O=C(O)c1cccc(-c2ccc(N(CC3CC3)S(=O)(=O)c3c(Cl)cccc3Cl)cc2)c1` had an EC50 in [1] of more than 10 µM.

In data set [1], `CC(C)CN(c1ccc(-c2ccc(C3(C(=O)O)CC3)cc2)cc1)S(=O)(=O)c1c(Cl)cccc1Cl` had a 50% effective concentration (EC50) of more than 10 µM.

In data set [1], `CC(C)CN(c1ccc(-c2ccc(C(N)=O)cc2)cc1)S(=O)(=O)c1c(Cl)cccc1Cl` yielded an EC50 of more than 10 µM.

In data set [1], `CC(C)CN(c1ccc(COc2ccc3c(CC(=O)O)coc3c2)cc1)S(=O)(=O)c1c(Cl)cccc1Cl` showed an EC50 of more than 10 µM.

Compound `Cc1ccc(S(=O)(=O)N(CC(C)C)c2ccc(-c3ccc(C(=O)O)cc3)cc2)cc1` registered a half-maximal effective concentration (EC50) in [1] of more than 10 µM.

Values taken from ChEMBL document CHEMBL5625171, “Design, synthesis, and biological studies of novel sulfonamide derivatives as farnesoid X receptor agonists” (Eur J Med Chem, 2023).
